Patent publication US20230340011A1 (Asteroid Therapeutics, priority 2022, published 2023)

Molecular target: SREBP-2 (Homo sapiens (Human), UniProt Q12772)
Assay: In vitro assay SREBP-2: PathHunter U2OS SREBP-2 Nuclear Translocation Cell Line, U18666A-stimulated
Format: cell-based
Details: PathHunter U2OS SREBP-2 nuclear translocation cells, U18666A 10 μM, overnight (16 hours)

| Compound | IC50 [nM] |
| --- | --- |
| C[C@H](CNC(=O)N(C)C)[C@H]1CC[C@H]2[C@@H]3CC=C4C[C@@H](O)CC[C@]4(C)[C@H]3CC[C@]12C [Example 347, 3-((S)-2-((3S,8S,9S,10R,13S,14S,17R)-3-hydroxy-10,13-dimethyl-2,3,4,7,8,9,10,11,12,13,14,15,16,17-tetradecahydro-1H-cyclopenta[a]phenanthren-17-yl)propyl)-1,1-dimethylurea] | 250 to 1000 |
| (4R)-4-[(1R,3aS,3bS,7S,9aR,9bS,11aR)-7-hydroxy-9a,11a-dimethyl-1H,2H,3H,3aH,3bH,4H,6H,7H,8H,9H,9aH,9bH,10H,11H,11aH-cyclopenta[a]phenanthren-1-yl]-1-[(3R)-3-(pyrimidin-4-yloxy)piperidin-1-yl]pentan-1-one [Example 462] | < 250 |
| COC(=O)NC[C@@H](C)[C@H]1CC[C@H]2[C@@H]3CC=C4C[C@@H](O)CC[C@]4(C)[C@H]3CC[C@]12C [Example 240, Methyl ((S)-2-((3S,8S,9S,10R,13S,14S,17R)-3-hydroxy-10,13-dimethyl-2,3,4,7,8,9,10,11,12,13,14,15,16,17-tetradecahydro-1H-cyclopenta[a]phenanthren-17-yl)propyl)carbamate] | 250 to 1000 |
| C[C@H](OCC(=O)N1CCC(C)(CO)CC1)[C@H]1CC[C@H]2[C@@H]3CC=C4C[C@@H](O)CC[C@]4(C)[C@H]3CC[C@]12C [Example 366, 2-((S)-1-((3S,8S,9S,10R,13S,14S,17S)-3-hydroxy-10,13-dimethyl-2,3,4,7,8,9,10,11,12,13,14,15,16,17-tetradecahydro-1H-cyclopenta[a]phenanthren-17-yl)ethoxy)-1-(4-(hydroxymethyl)-4-methylpiperidin-1-yl)ethan-1-one] | 250 to 1000 |
| C[C@H](CCC(=O)N1CCC(O)(CO)CC1)[C@H]1CC[C@H]2[C@@H]3CC=C4C[C@@H](O)CC[C@]4(C)[C@H]3CC[C@]12C [Example 150, (R)-4-((3S,8S,9S,10R,13R,14S,17R)-3-hydroxy-10,13-dimethyl-2,3,4,7,8,9,10,11,12,13,14,15,16,17-tetradecahydro-1H-cyclopenta[a]phenanthren-17-yl)-1-(4-hydroxy-4-(hydroxymethyl)piperidin-1-yl)pentan-1-one] | < 250 |
| C[C@H](Oc1cnccc1CO)[C@H]1CC[C@H]2[C@@H]3CC=C4C[C@@H](O)CC[C@]4(C)[C@H]3CC[C@]12C [Example 437, (3S,8S,9S,10R,13S,14S,17S)-17-((S)-1-((4-(hydroxymethyl)pyridin-3-yl)oxy)ethyl)-10,13-dim ethyl-2,3,4,7,8,9,10,11,12,13,14,15,16,17-tetradecahydro-1H-cyclopenta[a]phenanthren-3-ol] | 250 to 1000 |
| C[C@H](CCC(=O)N1CCC(O)(C2CCC2)CC1)[C@H]1CC[C@H]2[C@@H]3CC=C4C[C@@H](O)CC[C@]4(C)[C@H]3CC[C@]12C [Example 194, (R)-1-(4-cyclobutyl-4-hydroxypiperidin-1-yl)-4-((3S,8S,9S,10R,13R,14S,17R)-3-hydroxy-10,13-dimethyl-2,3,4,7,8,9,10,11,12,13,14,15,16,17-tetradecahydro-1H-cyclopenta[a]phenanthren-17-yl)pentan-1-one] | < 250 |
| CCOc1cccnc1CC[C@@H](C)[C@H]1CC[C@H]2[C@@H]3CC=C4C[C@@H](O)CC[C@]4(C)[C@H]3CC[C@]12C [Example 457, (1R,3aS,3bS,7S,9aR,9bS,11aR)-1-[(2R)-4-(3-ethoxypyridin-2-yl)butan-2-yl]-9a,11a-dimethyl-1H,2H,3H,3aH,3bH,4H,6H,7H,8H,9H,9aH,9bH,10H,11H,11aH-cyclopenta[a]phenanthren-7-ol] | < 250 |
| C[C@H](CCC(=O)N1CC[C@H](NC(=O)c2ccncn2)C1)[C@H]1CC[C@H]2[C@@H]3CC=C4C[C@@H](O)CC[C@]4(C)[C@H]3CC[C@]12C [Example 528, N—((S)-1-((R)-4-((3S,8S,9S,10R,13R,14S,17R)-3-hydroxy-10,13-dimethyl-2,3,4,7,8,9,10,11,12,13,14,15,16,17-tetradecahydro-1H-cyclopenta[a]phenanthren-17-yl)pentanoyl)pyrrolidin-3-yl)pyrimidine-4-carboxamide] | < 250 |
| COC(=O)N1CCN(C(=O)CC[C@@H](C)[C@H]2CC[C@H]3[C@@H]4CC=C5C[C@](O)(C(F)(F)F)CC[C@]5(C)[C@H]4CC[C@]23C)CC1 [Example 419, Methyl 4-((R)-4-((3S,8S,9S,10R,13R,14S,17R)-3-hydroxy-10,13-dimethyl-3-(trifluoromethyl)-2,3,4,7,8,9,10,11,12,13,14,15,16,17-tetradecahydro-1H-cyclopenta[a]phenanthren-17-yl)pentanoyl)piperazine-1-carboxylate] | 1000 to 10000 |
| C[C@H](CCC(=O)N1OCCC[C@@H]1C)[C@H]1CC[C@H]2[C@@H]3CC=C4C[C@@H](O)CC[C@]4(C)[C@H]3CC[C@]12C [Example 74, (R)-4-((3S,8S,9S,10R,13R,14S,17R)-3-hydroxy-10,13-dimethyl-2,3,4,7,8,9,10,11,12,13,14,15,16,17-tetradecahydro-1H-cyclopenta[a]phenanthren-17-yl)-1-((S)-3-methyl-1,2-oxazinan-2-yl)pentan-1-one] | < 250 |
| CON(C(=O)CC[C@@H](C)[C@H]1CC[C@H]2[C@@H]3CC=C4C[C@@H](O)CC[C@]4(C)[C@H]3CC[C@]12C)C1CC1 [Example 36, (R)—N-cyclopropyl-4-((3S,8S,9S,10R,13R,14S,17R)-3-hydroxy-10,13-dimethyl-2,3,4,7,8,9,10,11,12,13,14,15,16,17-tetradecahydro-1H-cyclopenta[a]phenanthren-17-yl)-N-methoxypentanamide] | 250 to 1000 |
| Cc1ncccc1O[C@@H](C)[C@H]1CC[C@H]2[C@@H]3CC=C4C[C@@H](O)CC[C@]4(C)[C@H]3CC[C@]12C [Example 430, (1S,3aS,3bS,7S,9aR,9bS,11aS)-9a,11a-dimethyl-1-[(1S)-1-[(2-methylpyridin-3-yl)oxy]ethyl]-1H,2H,3H,3aH,3bH,4H,6H,7H,8H,9H,9aH,9bH,10H,11H,11aH-cyclopenta[a]phenanthren-7-ol] | 250 to 1000 |
| CCCCC1(O)CCN(C(=O)CC[C@@H](C)[C@H]2CC[C@H]3[C@@H]4CC=C5C[C@@H](O)CC[C@]5(C)[C@H]4CC[C@]23C)CC1 [Example 92, (R)-1-(4-butyl-4-hydroxypiperidin-1-yl)-4-((3S,8S,9S,10R,13R,14S,17R)-3-hydroxy-10,13-dimethyl-2,3,4,7,8,9,10,11,12,13,14,15,16,17-tetradecahydro-1H-cyclopenta[a]phenanthren-17-yl)pentan-1-one] | < 250 |
| C[C@H](CCC(=O)N1CCC(N2CCOCC2=O)CC1)[C@H]1CC[C@H]2[C@@H]3CC=C4C[C@@H](O)CC[C@]4(C)[C@H]3CC[C@]12C [Example 525, 4-(1-((R)-4-((3S,8S,9S,10R,13R,14S,17R)-3-hydroxy-10,13-dimethyl-2,3,4,7,8,9,10,11,12,13,14,15,16,17-tetradecahydro-1H-cyclopenta [a]phenanthren-17-yl)pentanoyl)piperidin-4-yl)morpholin-3-one] | < 250 |
